# Measured values taken from patent US20130230470A1, “PET FOOD COMPOSITION” (DSM IP ASSETS B.V., priority 2003, published 2013).
# Key:
# [1] = tested on: domestic shorthair (DSH) breed cats; assay: clean tooth model, 28-day feeding study in cats: gingivitis, plaque and calculus indices; format: in vivo; settings: treatment diet 2.3 g STAY-C 50/kg cat food, 28 days
# Procedure: (§1) 18 domestic shorthair (DSH) breed cats (mean age 3.83±1.85 years, mean body weight 4.2+1.1 kg) were divided by age and gender into two equal groups (n=9) to be fed for 28 days with a • control diet or • treatment diet (2.3 g STAY-C® 50/kg cat food) As the “clean tooth” model was used, all cats received a dental cleaning consisting of ultrasonic scaling and, where necessary, using an abrasor after […], before the beginning of the study. The animals were then treated with the diets for 28 days. The analysis of the different indices were carried out according known methods.
# [2] = tested on: domestic shorthair (DSH) breed cats; assay: 28-day feeding study in cats: systemic health, body weight, blood counts, serum biochemistry; format: in vivo; settings: treatment diet 2.3 g STAY-C 50/kg cat food, 28 days
# Procedure: as §1
smiles,measurement,setting,value
"O=C1O[C@H]([C@@H](O)CO)C(O)=C1OP(=O)(O)O.[Na+].[Na+].[Na+] [STAY-C®50, trisodium L-ascorbic acid-2-monophosphate]","Calculus indices, reduction compared to control group",[1],about 14%
same,Plaque indices,[1],reduced significantly
same,Gingivitis indices,[1]; control group 28% increase,not increased
same,"changes in systemic health, body weight, blood counts or serum biochemistry",[2],No changes
